Test results taken from patent publication US20020182736A1, “Methods to measure lipid antioxidant activity” (TRUSTEES OF TUFTS COLLEGE, priority 2001, published 2002).
pIC50: −log10 of the molar value. Values joined by “and” are separate entries in the source; they are usually repeats but may differ in a detail not shown here. Equal values may be shown once. “Also recorded” adds a separate entry of the source.

How the values were obtained:
[1] = test system: lipid plasma compartment oxidation; assay: Lipid plasma compartment oxidation, BODIPY 581/591 green fluorescence
Protocol: Plasma oxidation was measured fluorometrically using two different fluorescent probes: DCFH and BODIPY. DCFH-DA and BODIPY stock solutions were prepared in EtOH and dimethylsulfoxide, respectively, stored under nitrogen at −20° C. and used within two months. The final plasma dilution was 1:5 (v/v).
In the experiments using β-carotene, to avoid the filtering effect due to the carotenoid, the oxidation product of BODIPY was also detected at λex=520 and at λem-540 nm. The fluorescence measurements were carried out using a Perkin Elmer spectrofluorometer (model 650-10s) with 1 cm path length fluorescence cuvettes.
Briefly, β-carotene (dissolved in stabilized THF, 10 mg/ml) or α-tocopherol (4.3 mg/ml in EtOH) were added to plasma to reach a final concentration of 50 μM; the samples were then vortexed for 30 sec and incubated at 37±1° C. for 1 to 6 hr under nitrogen. […] Controls were prepared in the same way using solvent only.
The effect of adding the membrane soluble antioxidants, α-tocopherol (in EtOH) and β-carotene (in THF), pre-incubated with plasma, was studied. […] Values are mean±SD of five independent experiments. Statistical analysis: one-way ANOVA with Tukey's post test; *p<0.05, **p<0.01.
To monitor the aqueous phase oxidizability, AAPH was used as a hydrophilic radical generator and coupled to DCFH was used as the indicator.

[2] = 37° C; cited from earlier work
[3] = test system: aqueous plasma compartment oxidation; assay: Aqueous plasma compartment oxidation, DCFH to DCF fluorescence; set-up: species or system human; details: for protective effect on aqueous compartment oxidation: 180 min of incubation
Protocol: The final plasma dilution was 1:5 (v/v).
DCFH was prepared from DCFH-DA by basic hydrolysis. Briefly 500 μl of DCFH-DA stock solution (1 mM) was mixed with 2 ml of NaOH (0.01 N at 4° C.) for 20 minutes while protected from the light. The mixture was then neutralized with 2 ml of HCl (0.01 N), diluted with PBS to a final concentration of 10 μM and stored in ice for no longer than 8 hrs (working solution); an aliquot of 100 μl was added to 200 μl of plasma and then diluted to a final volume of 1 ml with PBS. […] The excitation wavelength (λex) was set at […] (slit 5 nm) and emission (λem) at 520 nm (slit 5 nm).
Values are mean±SD of five independent experiments. […] Samples were incubated at 37° C. in the dark and at fixed times the DCF content measured by fluorescence (λex=502 nm, λem=520 nm).

[4] = ESR quenching of α-tocopheroxyl radical generated from α-tocopherol and DPPH; assay type: biochemical
Protocol: α-TOC+DPPH→α-TOC-O.+DPPHH [1]
For sample preparation, α-tocopherol (900 μM) and DPPH (600 μM) in ethanol solution were mixed for 20 sec and 50 μl of the reaction mixture transferred into a capillary ESR tube. (−)-Epigallocatechin-(3)-gallate (EGCG) was added to the mixture immediately after DPPH decolorization (30 sec after DPPH addition).

[5] = test system: lipid peroxyl radicals generated by MeO-AMVN in human plasma; assay: Consumption of endogenous plasma antioxidants induced by MeO-AMVN (HPLC); details: for Residual Amount (%) of Cryptoxanthin / Residual Amount (%) of Lutein / Residual Amount (%) of Lycopene / Residual Amount (%) of Zeaxanthin / Residual Amount (%) of β-Carotene: MeO-AMVN 2 mM for 60 min
Protocol: After an overnight fast (10-12 h), blood from two healthy donors was collected in ethylenediaminetetraacetic acid (EDTA)-containing tubes. In order to reduce the variability of different donors, blood samples from these two subjects were collected weekly for the duration of the experiment. Immediately after collection, the samples were placed on ice and protected from light. Plasma was obtained by centrifugation at 800 g for 20 min at 4° C. and immediately used for the in vitro studies.
In the presence of 10-20 mM of AAPH, the flux of aqueous radicals calculated on the basis of the known rate of free radical generation from AAPH at 37° C.
In order to obtain homogeneous incorporation, the lipid soluble initiators were added slowly to the samples with a micro-syringe (10 μl) with stirring. The samples were then vortexed for 10 sec and incubated at 37±1° C. under aerobic conditions.
In a second similar experiment, other antioxidants were studied. […] A 100 μl aliquot of the reaction mixture was extracted for β-carotene and α-tocopherol analysis. Echinenone in ethanol was added as an internal standard. The mixture was extracted with CHCl3:CH3OH (2:1 v/v) containing 0.2% BHT and hexane containing 0.1% BHT, dried under nitrogen, redissolved in ethanol, and injected into an HPLC system with a C30 column (3 μm, 150×4.6 mm, YMC, Wilmington, N.C.).
For water-soluble antioxidant measurement, the mixtures were immediately deproteinized with perchloric acid (250 mM).
Results are expressed as percentages with respect to control samples prepared without the azo-compounds.

[6] = cited from earlier work
[7] = test system: aqueous peroxyl radicals generated by AAPH in human plasma; assay: Consumption of endogenous plasma antioxidants induced by AAPH (HPLC); details: for Residual Amount (%) of Cryptoxanthin / Residual Amount (%) of Lutein / Residual Amount (%) of Lycopene / Residual Amount (%) of Zeaxanthin / Residual Amount (%) of β-Carotene: AAPH 20 mM for 120 min
Protocol: In a second similar experiment, other antioxidants were studied. […] Echinenone in ethanol was added as an internal standard.

## CC(C)(N=NC(C)(C)C(=N)N)C(=N)N.Cl.Cl [AAPH, 2,2′-azobis (2-amidinopropane) dihydrochloride]
[1]; 20 mM AAPH
  delay of BODIPY oxidation in plasma: 180 min
[2]
  rate of free radical generation Ri: 1.36×10^−6 [AAPH] mol/liter/sec
[3]; 10 mM AAPH
  start of propagation phase of DCFH oxidation in plasma: 180 min
[3]; 20 mM AAPH, dihydrochloride
  start of propagation phase / lag phase of DCFH oxidation in plasma: 90 min and 120 min

## O=C(O[C@@H]1Cc2c(O)cc(O)cc2O[C@@H]1c1cc(O)c(O)c(O)c1)c1cc(O)c(O)c(O)c1 [EGCG, (−)-Epigallocatechin-(3)-gallate]
[4]; 60 sec after the beginning of the reaction, read-out: IC50 quenching of α-TOC-O. ESR signal
  pIC50: 4.92
[4]; EGCG 2 μM, 60 sec after the beginning of the reaction
  % inhibition of ESR signal: 8±1.3%
[4]; EGCG 25 μM
  quenching effect on ESR signal: almost complete disappearance
[5]; EGCG 0.5 μM
  Residual Amount (%) of Cryptoxanthin: 54.38 ± 2.74%
  Residual Amount (%) of Lutein: 32.57 ± 4.14%
  Residual Amount (%) of Lycopene: 20.15 ± 3.22%
  Residual Amount (%) of Zeaxanthin: 47.69 ± 5.85%
  Residual Amount (%) of β-Carotene: 51.95 ± 1.68%
[5]; EGCG 1 μM
  Residual Amount (%) of Cryptoxanthin: 52.36 ± 0.79%
  Residual Amount (%) of Lutein: 33.75 ± 3.94%
  Residual Amount (%) of Lycopene: 19.76 ± 2.62%
  Residual Amount (%) of Zeaxanthin: 49.64 ± 2.14%
  Residual Amount (%) of β-Carotene: 50.15 ± 3.35%
[5]; EGCG 5 μM
  Residual Amount (%) of Cryptoxanthin: 45.16 ± 3.09%
  Residual Amount (%) of Lutein: 44.64 ± 5.50%
  Residual Amount (%) of Lycopene: 23.56 ± 1.78%
  Residual Amount (%) of Zeaxanthin: 44.31 ± 0.94%
  Residual Amount (%) of β-Carotene: 57.73 ± 0.54%
[5]; EGCG 10 μM, MeO-AMVN
  % α-tocopherol remaining: 96.71±1.46%
[5]; EGCG 10 μM
  Residual Amount (%) of Cryptoxanthin: 41.84 ± 1.60%
  Residual Amount (%) of Lutein: 40.36 ± 4.03%
  Residual Amount (%) of Lycopene: 26.72 ± 0.94%
  Residual Amount (%) of Zeaxanthin: 42.67 ± 2.04%
  Residual Amount (%) of β-Carotene: 59.13 ± 3.72%
[5]; EGCG 0.5-10 μM, MeO-AMVN
  sparing of carotenoids depletion: ineffective; also recorded: failed to prevent
[1]; EGCG 0.5 μM, MeO-AMVN 2 mM, 180 min of incubation
  protective effect on lipid compartment oxidation: 13.01±0.56%
[1]; EGCG 10 μM, MeO-AMVN 2 mM, 180 min of incubation
  protection of lipid compartment oxidation: 68±2.3%
[1]; MeO-AMVN 2 mM, 180 min
  lowest / starting effective concentration, lipid compartment: 0.5 µM and 0.5 to 1 µM
[1]; read-out: IC50 in lipid compartment, MeO-AMVN 2 mM, after 180 min of incubation
  pIC50: 5.36
[6]; E(EGCG-O., H+/EGCG-OH), E(A−., H+/AH−)
  redox potential E: 0.48 V
[6]; physiological pH
  ΔE to reduce tocopheroxyl radical: 0.06 V
[7]; EGCG 0.5 μM
  Residual Amount (%) of Cryptoxanthin: 28.46 ± 3.35%
  Residual Amount (%) of Lutein: 26.05 ± 4.26%
  Residual Amount (%) of Lycopene: 9.35 ± 5.18%
  Residual Amount (%) of Zeaxanthin: 25.61 ± 6.53%
  Residual Amount (%) of β-Carotene: 41.51 ± 6.64%
[7]; EGCG 1 μM
  Residual Amount (%) of Cryptoxanthin: 36.21 ± 1.71 %
  Residual Amount (%) of Lutein: 40.64 ± 5.30 %
  Residual Amount (%) of Lycopene: 18.06 ± 2.44%
  Residual Amount (%) of Zeaxanthin: 48.78 ± 4.81 %
  Residual Amount (%) of β-Carotene: 54.38 ± 4.86 %
[7]; EGCG 5 μM
  Residual Amount (%) of Cryptoxanthin: 48.88 ± 2.08 %
  Residual Amount (%) of Lutein: 56.05 ± 4.42 %
  Residual Amount (%) of Lycopene: 25.26 ± 1.02 %
  Residual Amount (%) of Zeaxanthin: 58.89 ± 5.10 %
  Residual Amount (%) of β-Carotene: 58.63 ± 3.30 %
[7]; EGCG 10 μM
  Residual Amount (%) of Cryptoxanthin: 56.45 ± 5.00 %
  Residual Amount (%) of Lutein: 63.13 ± 8.15 %
  Residual Amount (%) of Lycopene: 32.30 ± 4.24 %
  Residual Amount (%) of Zeaxanthin: 62.36 ± 11.92 %
  Residual Amount (%) of β-Carotene: 64.35 ± 6.37 %
[7]; EGCG 0.5-10 μM, 20 mM AAPH
  effect on consumption of ascorbic acid and uric acid: ineffective
[3]; AAPH 20 mM, 180 min
  concentration at which activity starts, aqueous compartment: 0.25 µM
[3]; AAPH 20 mM, after 180 min of incubation
  pIC50: 6.14
[3]; EGCG 10 μM, AAPH 20 mM
  protective effect on aqueous compartment oxidation: 93.02±2.02%
[3]; EGCG 0.25 AM, AAPH 20 mM
  protective effect on aqueous compartment oxidation: 20.25±0.34%
[3]; from IC50 after 180 min
  antioxidant efficiency in the aqueous in respect to the lipid domain: six times greater
